Data taken from the supplement of paper PMC12370961.

Legend:
Assay in all cases: differential drug sensitivity score (dDSS) relative to sarcoma reference cohort mean DSS (DSS units (0-100 scale difference)); higher = more selective sensitivity than reference sarcomas
Details in all cases: exposure time: 72 h; concentration range: 10-10000 nM
CDS-ZH001 = system: CDS-ZH001 (patient-derived CIC-DUX4 sarcoma tumoroid)
Description: (§1)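 Drug response profiling of patient-derived Ewing sarcoma and CIC::DUX4 sarcoma tumoroid models (or cells tested directly after isolation from the tumor, 'direct'). The DSS is the normalised AUC (0-100); dDSS is the sample DSS minus the mean DSS of a 34-sarcoma reference cohort profiled in the same lab.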

ES-ZH001 = system: ES-ZH001 (patient-derived Ewing sarcoma tumoroid)
Description: as §1

ES-ZH016 = system: ES-ZH016 (patient-derived Ewing sarcoma tumoroid)
Description: as §1

CDS-ZH002 = system: CDS-ZH002 (patient-derived CIC-DUX4 sarcoma tumoroid)
Description: as §1

CDS-ZH001-2 = system: CDS-ZH001-2 (patient-derived CIC-DUX4 sarcoma tumoroid)
Description: as §1

ES-ZH009 = system: ES-ZH009 (patient-derived Ewing sarcoma tumoroid)
Description: as §1

ES-ZH007 = system: ES-ZH007 (patient-derived Ewing sarcoma tumoroid)
Description: as §1

ES-ZH004 = system: ES-ZH004 (patient-derived Ewing sarcoma tumoroid)
Description: as §1

CDS-ZH003 = system: CDS-ZH003 (patient-derived CIC-DUX4 sarcoma tumoroid)
Description: as §1

ES-ZH002 = system: ES-ZH002 (patient-derived Ewing sarcoma tumoroid)
Description: as §1

ES-ZH016 direct = system: ES-ZH016 direct (Ewing sarcoma cells right after isolation)
Description: as §1

CDS-ZH002 direct = system: CDS-ZH002 direct (CIC-DUX4 sarcoma cells right after isolation)
Description: as §1

ES-ZH008 = system: ES-ZH008 (patient-derived Ewing sarcoma tumoroid)
Description: as §1

Row | SMILES | differential drug sensitivity score (CDS-ZH001) | differential drug sensitivity score (ES-ZH001) | differential drug sensitivity score (ES-ZH016) | differential drug sensitivity score (CDS-ZH002) | differential drug sensitivity score (CDS-ZH001-2) | differential drug sensitivity score (ES-ZH009) | differential drug sensitivity score (ES-ZH007) | differential drug sensitivity score (ES-ZH004) | differential drug sensitivity score (CDS-ZH003) | differential drug sensitivity score (ES-ZH002) | differential drug sensitivity score (ES-ZH016 direct) | differential drug sensitivity score (CDS-ZH002 direct) | differential drug sensitivity score (ES-ZH008)
1 | C[C@@H]1COCCN1c1cc(-c2ccnn2C)c2ccnc(-c3ccn[nH]3)c2n1 [Elimusertib] | 7.3 | 7 | 6.4 | 0.9 | 11.3 | 10.9 | 10.1 | 9.6 | 7.8 | 10.8 | 12.4 | -5.1 | 11.6
2 | NC(=O)/C(=C/n1cnc(-c2cc(C(F)(F)F)cc(C(F)(F)F)c2)n1)c1cncnc1 [Eltanexor] | 0.5 | -3.8 | -5.7 | -5.7 | 8 | -14.4 | 0.4 | 14 | -13.9 | 5 | 22 | -5.9 | 16.8
3 | CC(C)(O)CNc1nc(Nc2ccnc(C(F)(F)F)c2)nc(-c2cccc(C(F)(F)F)n2)n1 [Enasidenib] | -1.3 | -1.3 | -1.3 | -1.3 | -1.3 | -1.3 | -1 | -0.7 | -1.3 | -1.3 | -1.3 | -1.3 | -1.3
4 | C[C@@H]1CN(C(=O)c2ccc(NC(=O)c3cc(O[C@H](C)c4c(Cl)ccc(F)c4Cl)c(N)nn3)cc2)C[C@H](C)N1 [Ensartinib] | 5 | 4.7 | 3.9 | -0.8 | 5.2 | -2.1 | 4.2 | 4.3 | -1.2 | 15.2 | 3.7 | -1.9 | 13.9
5 | Nc1ccccc1NC(=O)c1ccc(CNC(=O)OCc2cccnc2)cc1 [Entinostat] | -4.9 | 0.2 | -0.2 | -3 | 0.5 | 2.1 | 5.5 | 7.1 | -2.1 | 4.9 | 5.6 | 1.3 | 5.6
6 | c1cn2cc(-c3ccc4cn[nH]c4c3)nc(Nc3ccc(N4CCOCC4)cc3)c2n1 [Entospletinib] | -2.1 | -2.1 | -2.1 | 13.4 | 10.6 | -2.1 | -2.1 | -2.1 | 0 | -2.1 | 13.1 | -1.8 | -2.1
7 | CN1CCN(c2ccc(C(=O)Nc3n[nH]c4ccc(Cc5cc(F)cc(F)c5)cc34)c(NC3CCOCC3)c2)CC1 [Entrectinib] | 2 | 3 | 2.3 | 0.2 | 7.7 | 2 | -1.1 | 12.9 | -4.3 | 8.1 | 10.8 | -2.3 | 6
8 | NS(=O)(=O)NCCNc1nonc1/C(=N/O)Nc1ccc(F)c(Br)c1 [Epacadostat] | -0.7 | -0.7 | 0.1 | -0.7 | -0.7 | 0 | -0.7 | 0 | 0.6 | -0.2 | -0.5 | -0.7 | 5.6
9 | COc1cc(OC)cc(N(CCNC(C)C)c2ccc3ncc(-c4cnn(C)c4)nc3c2)c1 [Erdafitinib] | -1.4 | -2.3 | -3.7 | -4 | -0.4 | -1.7 | -2.5 | 5 | -8 | 7.8 | 12.1 | -4.5 | 10.1
10 | C#Cc1cccc(Nc2ncnc3cc(OCCOC)c(OCCOC)cc23)c1 [Erlotinib] | -1.1 | -1.1 | -1.1 | -1.1 | -1.1 | -1.1 | -1.1 | -1.1 | -1.1 | -1.1 | -1.1 | -1.1 | -1.1
11 | COc1cc([C@@H]2c3cc4c(cc3[C@@H](O[C@@H]3O[C@@H]5CO[C@@H](C)O[C@H]5[C@H](O)[C@H]3O)[C@H]3COC(=O)[C@H]23)OCO4)cc(OC)c1O [Etoposide] | -1.6 | 10 | 8.7 | -4.3 | 3.8 | 8.6 | 6.1 | 11.7 | -6.8 | 25.5 | 7.2 | -7.3 | 13.6
12 | CO[C@H]1C[C@@H]2CC[C@@H](C)[C@@](O)(O2)C(=O)C(=O)N2CCCC[C@H]2C(=O)O[C@H]([C@H](C)C[C@@H]2CC[C@@H](OCCO)[C@H](OC)C2)CC(=O)[C@H](C)/C=C(\C)[C@@H](O)[C@@H](OC)C(=O)[C@H](C)C[C@H](C)/C=C/C=C/C=C/1C [Everolimus] | -5.3 | 5.3 | -3.5 | -7.4 | -3.9 | 9.3 | 9.6 | 12 | -3.3 | 13.6 | -7 | -6.4 | 4.8
13 | Cc1cnc(Nc2ccc(OCCN3CCCC3)cc2)nc1Nc1cccc(S(=O)(=O)NC(C)(C)C)c1 [Fedratinib] | -0.1 | 1.8 | -1.3 | -1.7 | 0.2 | 3.9 | -1.8 | -3.2 | -2.2 | 5.5 | -0.1 | -3.3 | 1.5
14 | Nc1nc(F)nc2c1ncn2[C@@H]1O[C@H](CO)[C@@H](O)[C@@H]1O [Fludarabine] | -3.2 | 4.6 | 1.4 | -0.8 | 3.9 | -3.2 | 3.9 | 5.3 | -2.8 | 8.7 | 11.5 | 2.5 | -1.1
15 | CN[C@@H](C)C(=O)N[C@H](C(=O)N1CCC[C@H]1C(=O)Nc1snnc1-c1ccccc1)C1CCCCC1 [GDC0152] | 12.4 | -3.6 | -3.6 | -2.5 | 7.6 | 4.5 | -0.8 | 4.8 | 11.1 | 1.9 | 0.6 | 5.8 | 10.7
16 | Nc1ccn([C@@H]2O[C@H](CO)[C@@H](O)C2(F)F)c(=O)n1 [Gemcitabine] | 4.5 | 23.1 | 22.4 | -4.9 | 1.8 | 19.6 | 24.5 | 20.1 | -7 | 24.8 | 9.7 | -7 | 18.7
17 | CCc1nc(C(N)=O)c(Nc2ccc(N3CCC(N4CCN(C)CC4)CC3)c(OC)c2)nc1NC1CCOCC1 [Gilteritinib] | 7.4 | 1.1 | 0.8 | -1.4 | 8 | 10.1 | 4.2 | 4.2 | 10.4 | 16 | 9.4 | 1.6 | 10.2
18 | CCN(CC)Cc1ccc2cc(COC(=O)Nc3ccc(C(=O)NO)cc3)ccc2c1 [Givinostat] | -0.7 | 1.9 | 3.9 | -0.9 | 2.7 | 6.8 | 3.7 | 4.2 | -3.4 | 5.5 | 3.3 | 1.5 | 5.9
19 | CN1CC[C@@H](NC(=O)Nc2ccc(C#N)cc2)C[C@@H]1c1nc2ccccc2[nH]1 [Glasdegib] | -0.8 | -0.8 | -0.8 | -0.8 | -0.8 | -0.8 | -0.8 | -0.8 | 2.5 | 1.3 | -0.8 | -0.8 | -0.8
20 | COc1cccc(-c2cc(F)ccc2[C@H]2Cc3nc(N)nc(C)c3C(=O)N2)n1 [HSP-990] | 1.4 | 3.8 | 3.4 | -9.2 | 0.3 | 6 | 1.2 | -0.8 | 1.3 | 8.8 | 4.9 | -4 | 7.1
21 | COC(=O)C[C@](O)(CCCC(C)(C)O)C(=O)O[C@@H]1C(OC)=C[C@]23CCCN2CCc2cc4c(cc2[C@H]13)OCO4 [Homoharringtonine] | 10.1 | 3.5 | 3.1 | 6.3 | 10.7 | 6 | 10 | 1.9 | 1 | 9.7 | 2.7 | 10 | 13.3
22 | O=[P@]1(N(CCCl)CCCl)N[C@H](OO)CCO1 [Hydroperoxycyclophosphamide] | -0.7 | 1.7 | 2.2 | -3.6 | -2.3 | -1 | 0.2 | 6.4 | -4.1 | 7.7 | 4.6 | -3.6 | 6.5
23 | CCn1cc(-c2cccc(C(F)(F)F)c2)c2sc(C(=N)NC3CCS(=O)(=O)CC3)cc2c1=O [I-BRD9] | 2.7 | -1.6 | -1.6 | -1 | 3.3 | 2.6 | -1.8 | -2.8 | 8.4 | -1.8 | 9.8 | -2.6 | -2.8
24 | O=C(c1ccc(Nc2nccc(-c3cc4ccccc4s3)n2)cc1)N1CCC(N2CCCC2)CC1 [IKK16] | -0.1 | -2.5 | -4.4 | -4 | 0 | 0.4 | -0.6 | -4.1 | 0.7 | 2.3 | 0.1 | 0.3 | 0
25 | O=C(O)CNC(=O)c1c(O)c2ccccc2n(Cc2ccccc2)c1=O [IOX2] | -1.5 | 3.2 | -1.5 | -1.3 | -1.5 | -1.5 | -0.7 | 0.7 | 3.7 | 5.1 | -1.5 | 1 | 3.7
26 | C=CC(=O)N1CCC[C@@H](n2nc(-c3ccc(Oc4ccccc4)cc3)c3c(N)ncnc32)C1 [Ibrutinib] | -2.7 | -2.1 | -2.7 | -2.7 | -2.7 | -2.7 | -2.7 | -2.5 | -2.7 | 0.4 | 1.4 | -2.1 | -2.2
27 | CC(=O)[C@]1(O)Cc2c(O)c3c(c(O)c2[C@@H](O[C@H]2C[C@H](N)[C@H](O)[C@H](C)O2)C1)C(=O)c1ccccc1C3=O [Idarubicin] | -0.3 | 11.8 | 11.8 | 0.5 | 7 | 13.4 | -9.5 | -2.2 | 0.5 | 19.4 | 7.3 | 1.8 | 6.4
28 | COc1cc(C(=O)O)ccc1NC(=O)[C@@H]1N[C@@H](CC(C)(C)C)[C@](C#N)(c2ccc(Cl)cc2F)[C@H]1c1cccc(Cl)c1F [Idasanutlin] | 4 | -13.6 | 6.4 | 1.9 | 8.5 | -13.6 | -13.6 | -13.6 | 12 | 23 | 15.1 | 10 | 19.1
